{"source": "patent US6908742B2", "about": "“Methods and kits for the detection of endotoxin” (priority 1996, dated 2005)", "key": {"[1]": {"target": "T1, A1 adenosine receptors in sheep brain membranes (Ovis aries, UniProt A0ACI6R3B7)", "T1 sequence (A0ACI6R3B7 1-326)": "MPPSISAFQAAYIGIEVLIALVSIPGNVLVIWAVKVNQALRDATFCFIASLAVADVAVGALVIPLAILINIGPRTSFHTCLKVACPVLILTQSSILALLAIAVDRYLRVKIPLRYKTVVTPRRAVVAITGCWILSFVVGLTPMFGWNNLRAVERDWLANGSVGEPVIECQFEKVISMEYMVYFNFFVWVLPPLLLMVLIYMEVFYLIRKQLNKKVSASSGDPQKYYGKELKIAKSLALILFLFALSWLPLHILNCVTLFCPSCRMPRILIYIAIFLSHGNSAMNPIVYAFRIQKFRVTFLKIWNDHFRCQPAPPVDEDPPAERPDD", "assay": "Saturation experiments with [3H] DPCPX or [3H] CCPA in sheep brain membranes", "type": "binding", "description": "(§1) Frozen sheep brain (Pel Freeze, Rodgers, Ark.) or hamster brain (Harlan Bioproducts, Indianapolis, Ind.) was thawed and homogenized in 10 volumes of cold (4° C.), 0.32 M sucrose. The homogenate was centrifuged at 1,000× g for 10 minutes to remove the nuclear fraction. The supernatant was centrifuged at 30,000× g for 30 minutes. The resulting pellet was resuspended in 10 ml water and left on ice for 30 minutes to obtain synaptosomal membranes. The suspension was then centrifuged at 48,000× g for 10 minutes and the membranes resuspended in 50 mM Tris-HCl (pH 7.4) at a concentration of 8 mg protein/ml, frozen in liquid nitrogen, and stored at −20° C. until binding assay.\n(§2) Binding of [^3H] DPCPX or [^3H] CCPA to membranes was carried out in an assay volume of 500 μl Tris-HCl, pH 7.4, MgCl2 (10 mM) (for membranes from feline PAECs only) containing [^3H] DPCPX or [^3H] CCPA (0.01 to 4 nM). Nonspecific binding of [^3H] DPCPX or [^3H] CCPA was determined in the presence of R-PIA (100 μM) or theophylline (1 mM), respectively. To remove endogenous adenosine, adenosine deaminase was present in all binding assays at a concentration of 0.2 U/ml. Incubations were performed for 2 hours at room temperature for sheep and hamster brain membranes and 4° C. for feline PAEC membranes. Incubations were terminated by rapid removal of the incubation buffer by filtration through Whatman GF/B filters (Whatman Inc., Clifton, N.J.). The membrane bound radioactivity was measured by scintillation counting of the filter paper. To determine Kd, Bmax, and nonspecific binding in sheep and hamster brain and feline PAEC membranes, experiments are performed in duplicate."}, "[2]": {"target": "T2, A1 adenosine receptors in hamster brain membranes (Mesocricetus auratus, UniProt A0A1U8BVR4)", "T2 sequence (A0A1U8BVR4 1-326)": "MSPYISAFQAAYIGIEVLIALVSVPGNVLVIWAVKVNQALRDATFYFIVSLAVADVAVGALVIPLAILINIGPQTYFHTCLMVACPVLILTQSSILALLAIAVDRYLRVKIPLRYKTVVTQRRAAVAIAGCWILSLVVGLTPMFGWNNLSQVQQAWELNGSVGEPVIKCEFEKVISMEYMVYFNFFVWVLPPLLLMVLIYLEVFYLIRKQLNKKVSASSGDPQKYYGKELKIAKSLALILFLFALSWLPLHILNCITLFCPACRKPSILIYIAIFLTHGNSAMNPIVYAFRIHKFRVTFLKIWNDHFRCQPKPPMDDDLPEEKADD", "assay": "Saturation experiments with [3H] DPCPX or [3H] CCPA in hamster brain membranes", "type": "binding", "description": "as §1, §2"}, "A1 adenosine receptor": {"target": "T3, A1 adenosine receptor (Homo sapiens, UniProt P30542)", "T3 construct": "host or cells: tissues (not specified)", "T3 sequence (P30542 1-326)": "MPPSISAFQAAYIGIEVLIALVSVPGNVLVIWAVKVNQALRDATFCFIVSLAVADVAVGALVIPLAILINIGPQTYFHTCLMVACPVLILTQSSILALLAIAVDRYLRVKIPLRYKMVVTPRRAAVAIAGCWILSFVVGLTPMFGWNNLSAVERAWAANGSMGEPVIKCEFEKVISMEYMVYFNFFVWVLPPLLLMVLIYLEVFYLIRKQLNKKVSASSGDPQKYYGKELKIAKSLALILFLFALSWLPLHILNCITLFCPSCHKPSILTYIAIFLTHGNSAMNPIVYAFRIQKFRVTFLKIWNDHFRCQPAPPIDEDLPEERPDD", "details": "in tissues; cited from earlier work"}, "[3]": {"target": "T4, A1 adenosine receptors in membranes from feline PAECs (Felis catus, UniProt A0ABI7XJE9)", "T4 sequence (A0ABI7XJE9 1-326)": "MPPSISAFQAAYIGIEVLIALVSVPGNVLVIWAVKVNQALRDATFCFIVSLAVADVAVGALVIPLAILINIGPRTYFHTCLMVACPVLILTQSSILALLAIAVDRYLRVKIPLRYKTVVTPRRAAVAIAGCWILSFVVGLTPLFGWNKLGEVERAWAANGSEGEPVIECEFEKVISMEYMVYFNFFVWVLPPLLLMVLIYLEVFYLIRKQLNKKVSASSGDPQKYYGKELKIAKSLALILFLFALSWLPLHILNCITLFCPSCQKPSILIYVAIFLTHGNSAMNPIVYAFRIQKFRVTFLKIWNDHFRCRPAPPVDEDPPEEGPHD", "assay": "Saturation experiments with [3H] DPCPX in feline PAEC membranes", "type": "binding", "description": "(§3) Feline PAECs were grown to confluency in […] culture plates. The confluent cells were washed twice with KSP buffer (10 mM KH2P04, 50 mM sucrose). The cells were scraped and suspended in KSP buffer at a concentration of 1×10^6 cells/ml in two conical centrifuge tubes. The tubes were centrifuged at 1000 g×2 minutes and the buffer discarded. The cells from one tube were then suspended in deoxygenated buffer (bubbled with N2 gas for 10 minutes) and bubbled with N2 gas for 30 seconds to insure hypoxic conditions. These cells were then incubated for 2 hours in this hypoxic buffer. Cells from the other tube were suspended in normal KSP buffer and incubated at 37° C. for 2 hours. At the end of incubation, cells were homogenized immediately for membrane preparation.\nFor membrane preparation, the cells were homogenized by sonication and centrifuged at 1000× g for 10 minutes. The supernatant was centrifuged again at 30,000× g for 30 minutes. The membrane fraction was reconstituted with Tris buffer for radioligand binding studies.\nas §2"}, "[4]": {"target": "T4, A1 adenosine receptors in membranes from feline PAECs", "assay": "Competition experiments for [3H] DPCPX in feline PAEC membranes", "type": "binding", "details": "cultured feline PAEC membranes", "description": "as §3\nFor membrane preparation, the cells were homogenized by sonication and centrifuged at 1000× g for 10 minutes. The supernatant was centrifuged again at 30,000× g for 30 minutes. […]\nRadioligand binding data are analyzed with the use of Graph Pad Prism by nonlinear regression analysis equipped with a statistical package. Data are expressed as mean±SEM. Hill plots and Schild plots are determined for each species of LPS in competition experiments and are used as standard curves for the determinations of the concentration of endotoxin in samples with unknown concentrations of endotoxin."}}}
{"smiles": "OC[C@H]1O[C@@H](n2cnc3c(NC4CCCC4)nc(Cl)nc32)[C@H](O)[C@@H]1O", "note": "[[^3H] CCPA, 2-chloro-N^6-cyclopentyladenosine]", "values": [{"measurement": "density of high affinity A1 adenosine receptors", "setting": "[1]; sheep brain, determined using [3H] CCPA", "value": "1920 ± 250", "unit": "fmol/mg"}, {"measurement": "density of high affinity A1 adenosine receptors", "setting": "[2]; hamster brain, determined using [3H] CCPA", "value": "1630 ± 60", "unit": "fmol/mg"}]}
{"smiles": "CCCn1c(=O)c2[nH]c(C3CCCC3)nc2n(CCC)c1=O", "note": "[DPCPX, 1,3-dipropyl-8-cyclopentylxanthine]", "values": [{"measurement": "nonspecific binding", "setting": "A1 adenosine receptor", "value": "less than 1%"}]}
{"smiles": "CCCn1c(=O)c2[nH]c(C3CCCC3)nc2n(CCC)c1=O", "note": "[[^3H]-DPCPX, [^3H]-1,3-dipropyl-8-cyclopentyladenosine xanthine]", "values": [{"measurement": "Kd", "setting": "[1]; sheep brain membranes", "value": 0.37, "unit": "nM"}, {"measurement": "Bmax", "setting": "[1]; sheep brain membranes, [3H]-DPCPX saturation", "value": 2251, "unit": "fmoles/mg protein"}, {"measurement": "Kd", "setting": "[2]; hamster brain membranes", "value": 0.32, "unit": "nM"}, {"measurement": "Bmax", "setting": "[2]; hamster brain membranes, [3H]-DPCPX saturation", "value": 3733, "unit": "fmoles/mg protein"}, {"measurement": "Bmax", "setting": "[3]; hypoxia", "value": 1458, "unit": "fmoles/mg protein"}, {"measurement": "Kd", "setting": "[3]; hypoxia", "value": 0.26, "unit": "nM"}, {"measurement": "Bmax", "setting": "[3]; normoxia", "value": 1064, "unit": "fmoles/mg protein"}, {"measurement": "Kd", "setting": "[3]; normoxia", "value": 0.33, "unit": "nM"}]}
{"smiles": "Nc1nc(Nc2ccccc2)nc2c1ncn2[C@@H]1O[C@H](CO)[C@@H](O)[C@H]1O", "note": "[CV 1808, 2-phenylaminoadenosine]", "values": [{"measurement": "displacement of bound [3H] DPCPX", "setting": "[4]", "value": "did not displace"}]}
